pIC50: −log10 of the molar value.
Assays:
Type in all cases: cell-based
[1] = test system: human HTT mRNA, SNP rs362331 T allele, GM04022 fibroblasts; assay: Screening of HD molecules in GM04022 fibroblasts, allele-specific HTT mRNA by RT-PCR, T allele; details: for GM04022 Emin 48 hr T Allele: Emin = lowest % HTT observed within compound concentration 0.5 nM to 1000 nM; for pIC50: Homo sapiens, Fibroblast, 48-hour incubation, T allele HTT mRNA normalized to GAPDH, relative to vehicle
Procedure: (§1) Molecular Biology Toolkit: • qPCR primer probe sets: • RNA input normalization was assessed utilizing human glyceraldehyde 3-phosphate dehydrogenase (hGAPDH) TaqMan assay (ThermoFisher cat #4351370) or Human Cyclophillin ([…]) TaqMan assay (ThermoFisher cat #4351372) • Total HTT detection was assessed utilizing human Htt TaqMan assay (ThermoFisher cat #4331182) • Allele-specific detection of human HTT expression in HD cells containing the SNP rs362331C/T (Exon 50): for each assay, allele-specific probes to detect the SNP variant contained locked nucleic acid bases to improve allele discrimination, as compared to unmodified DNA probes.
(§2) • qPCR was performed using Agpath ID one-step reverse transcriptase polymerase chain reaction (RT-PCR) reagent
(§3) Screening of HD molecules methods: GM09197 and/or GM04022 fibroblasts were cultured in T175 flasks incubated at 37° C. and 5% CO2. Once confluency was reached, the media was removed, the cells were washed with 1×PBS, and cells were dissociated using TrypLE™ Express Enzyme. Media was added to the enzyme and collected into a 15-mL conical tube and centrifuged at 500×g for 5 minutes to pellet the cells. Media and enzyme were aspirated using a serological pipette. Cells were resuspended in fresh media and counted using a Countess 3 Automated Cell Counter. Cells were plated at a density of 15,000 cells/well in a tissue culture-treated polystyrene 96-well dish and incubated at 37° C. and 5% CO2 overnight. The next day, media was removed using an 8-channel aspirator. 200 μL media/well are added back into the plate. The molecules are formulated to 1 mM and are dispensed using a Multidrop™ Pico 8 Digital Dispenser. After a 48-hour incubation with compounds, media was removed from plates, cells were washed with 1×PBS, and cells were lysed in 40 μL per well guanidinium thiocyanate buffer. RNA was isolated and purified in […] glass fiber column plates using chaotropic salts. Human mtHTT, wtHTT, and GAPDH mRNA were measured via RT-PCR using the ThermoFisher QuantStudio™ 7 Flex System in 384-well format. Results of HTT levels were normalized to GAPDH mRNA levels. Normalized HTT mRNA levels were expressed relative to vehicle-treated samples to assess fold change after molecule treatment.
(§4) Emin for each compound is the lowest % HTT concentration observed within a compound concentration of 0.5 nM to 1000 nM.

[2] = test system: human HTT mRNA, SNP rs362331 C allele, GM04022 fibroblasts; assay: Screening of HD molecules in GM04022 fibroblasts, allele-specific HTT mRNA by RT-PCR, C allele; details: Emin = lowest % HTT observed within compound concentration 0.5 nM to 1000 nM
Procedure: as §1, §2
as §3, with “Results of HTT levels were normalized to GAPDH mRNA levels. Normalized HTT mRNA levels were expressed relative to vehicle-treated samples to assess fold change after molecule treatment.” left out

[3] = test system: human HTT mRNA, SNP rs362331 C allele, GM09197 fibroblasts; assay: Screening of HD molecules in GM09197 fibroblasts, allele-specific HTT mRNA by RT-PCR, C allele; details: 48 hr, C allele, Emin = lowest % HTT observed within compound concentration 0.5 nM to 1000 nM
Procedure: as §1, §2, §3, §4

[4] = test system: human HTT mRNA, SNP rs362331 T allele, GM09197 fibroblasts; assay: Screening of HD molecules in GM09197 fibroblasts, allele-specific HTT mRNA by RT-PCR, T allele; details: for Gm09197 Emin 48 hr T Allele (%): Emin = lowest % HTT observed within compound concentration 0.5 nM to 1000 nM; for pIC50: Homo sapiens, Fibroblast, 48-hour incubation, T allele HTT mRNA normalized to GAPDH, relative to vehicle
Procedure: as §1, §2, §3, §4

Compound | GM04022 Emin 48 hr T Allele [1] | GM 04022Emin 48 hr C Allele [2] | GM 09197 E min 48 Hr C Allele (%) [3] | Gm09197 Emin 48 hr T Allele (%) [4] | pIC50 [1] | pIC50 [4]
Cn1cc(NC(=O)c2nc(NC(=O)CCNC(=O)c3cc(NC(=O)c4nccn4C)cn3C)cn2C)cc1C(=O)NCCCC(=O)Nc1cn(C)c(C(=O)NCCC(=O)Nc2cc(C(=O)Nc3cn(C)c(C(=O)NCCC(=O)NCCOCCOCCOCCOCCOCCOCCOCCOCCOCCOCCOCCOCCOCCOCCOCCOc4ccc(NC(=O)c5cc6c(-c7cc(S(C)(=O)=O)ccc7Oc7ccc(F)cc7F)cn(C)c(=O)c6[nH]5)cc4)n3)n(C)c2)n1 [Compound A-2] | C (C<80%) | A (A>90%) | A (A>90%) | C (C<80%) |  | 
CCNC(=O)c1cc2c(-c3cc(S(C)(=O)=O)ccc3Oc3ccc(OCCOCCOCCOCCOCCOCCOCCOCCOCCNC(=O)CCNC(=O)c4nc(NC(=O)c5cc(NC(=O)CCNC(=O)c6nc(NC(=O)CCCNC(=O)c7cc(NC(=O)c8nc(NC(=O)CCNC(=O)c9cc(NC(=O)c%10nccn%10C)cn9C)cn8C)cn7C)cn6C)cn5C)cn4C)cc3F)cn(C)c(=O)c2[nH]1 [Compound A-3] | C (C<80%) | A (A>90%) | A (A>90%) | C (C<80%) | 7.44 | 7.41
CCS(=O)(=O)Nc1ccc(Oc2ccc(F)cc2F)c(-c2cn(C)c(=O)c3[nH]c(C(=O)Nc4ccc(OCCOCCOCCOCCOCCOCCOCCOCCOCCNC(=O)CCNC(=O)c5nc(NC(=O)c6cc(NC(=O)CCNC(=O)c7nc(NC(=O)CCCNC(=O)c8cc(NC(=O)c9nc(NC(=O)CCNC(=O)c%10cc(NC(=O)c%11nccn%11C)cn%10C)cn9C)cn8C)cn7C)cn6C)cn5C)cc4)cc23)c1 [Compound A-5] | C (C<80%) | A (A>90%) | A (A>90%) | C (C<80%) | 8.70 | 8.01
Cc1noc(C)c1-c1ccc2c(c1)nc(CCc1ccc(OCCOCCOCCOCCOCCOCCOCCOCCOCCNC(=O)CCNC(=O)c3nc(NC(=O)c4cc(NC(=O)CCNC(=O)c5nc(NC(=O)CCCNC(=O)c6cc(NC(=O)c7nc(NC(=O)CCNC(=O)c8cc(NC(=O)c9nccn9C)cn8C)cn7C)cn6C)cn5C)cn4C)cn3C)c(Cl)c1)n2C[C@H](C)N1CCOCC1 [Compound A-53] |  |  | A (A>90%) | B (B is 90% to 80%) |  | 
Cc1noc(C)c1-c1ccc2c(c1)nc(CCc1ccc(OCCOCCOCCOCCOCCOCCOCCOCCOCCOCCOCCOCCOCCOCCOCCOCCNC(=O)CCNC(=O)c3nc(NC(=O)c4cc(NC(=O)CCNC(=O)c5nc(NC(=O)CCCNC(=O)c6cc(NC(=O)c7nc(NC(=O)CCNC(=O)c8cc(NC(=O)c9nccn9C)cn8C)cn7C)cn6C)cn5C)cn4C)cn3C)c(Cl)c1)n2C[C@H](C)N1CCOCC1 [Compound A-54] |  |  | B (B is 90% to 80%) | B (B is 90% to 80%) |  | 
CCNC(=O)c1cc2c(-c3cc(S(C)(=O)=O)ccc3Oc3ccc(OCCOCCOCCOCCOCCNC(=O)CCNC(=O)c4nc(NC(=O)c5cc(NC(=O)CCNC(=O)c6nc(NC(=O)CCCNC(=O)c7cc(NC(=O)c8nc(NC(=O)CCNC(=O)c9cc(NC(=O)c%10nccn%10C)cn9C)cn8C)cn7C)cn6C)cn5C)cn4C)cc3F)cn(C)c(=O)c2[nH]1 [Compound A-55] |  |  | A (A>90%) | A (A>90%) |  | 
CC(=O)N1c2ccc(-c3ccn(CCOCCOCCOCCOCCOCCOCCOCCOCCOCCOCCOCCOCCOCCOCCOCCNC(=O)CCNC(=O)c4nc(NC(=O)c5cc(NC(=O)CCNC(=O)c6nc(NC(=O)CCCNC(=O)c7cc(NC(=O)c8nc(NC(=O)CCNC(=O)c9cc(NC(=O)c%10nccn%10C)cn9C)cn8C)cn7C)cn6C)cn5C)cn4C)n3)cc2[C@H](Nc2ccc(C#N)cc2)C[C@@H]1C [Compound A-56] |  |  | C (C<80%) | C (C<80%) |  | 
CC(=O)N1c2ccc(-c3ccn(-c4ccc(OCCOCCOCCOCCOCCOCCOCCOCCOCCOCCOCCOCCOCCOCCOCCOCCNC(=O)CCNC(=O)c5nc(NC(=O)c6cc(NC(=O)CCNC(=O)c7nc(NC(=O)CCCNC(=O)c8cc(NC(=O)c9nc(NC(=O)CCNC(=O)c%10cc(NC(=O)c%11nccn%11C)cn%10C)cn9C)cn8C)cn7C)cn6C)cn5C)cc4)n3)cc2[C@H](Nc2ccc(C#N)cc2)C[C@@H]1C [Compound A-58] |  |  | B (B is 90% to 80%) | B (B is 90% to 80%) |  | 
CC(=O)N1c2ccc(-c3ccn(-c4ccc(OCCOCCOCCOCCOCCOCCOCCOCCOCCNC(=O)CCNC(=O)c5nc(NC(=O)c6cc(NC(=O)CCNC(=O)c7nc(NC(=O)CCCNC(=O)c8cc(NC(=O)c9nc(NC(=O)CCNC(=O)c%10cc(NC(=O)c%11nccn%11C)cn%10C)cn9C)cn8C)cn7C)cn6C)cn5C)cc4)n3)cc2[C@H](Nc2ccc(C#N)cc2)C[C@@H]1C [Compound A-59] |  |  | B (B is 90% to 80%) | B (B is 90% to 80%) |  | 
CCNS(=O)(=O)c1ccc(Oc2ccc(OCCOCCOCCOCCOCCOCCOCCOCCOCCOCCOCCOCCOCCOCCOCCOCCNC(=O)CCNC(=O)c3nc(NC(=O)c4cc(NC(=O)CCNC(=O)c5nc(NC(=O)CCCNC(=O)c6cc(NC(=O)c7nc(NC(=O)CCNC(=O)c8cc(NC(=O)c9nccn9C)cn8C)cn7C)cn6C)cn5C)cn4C)cn3C)cc2F)c(-c2cn(C)c(=O)c3[nH]ccc23)c1 [Compound A-68] |  |  | A (A>90%) | C (C<80%) |  | 
CCS(=O)(=O)Nc1ccc(Oc2ccc(F)cc2F)c(-c2cn(C)c(=O)c3[nH]c(C(=O)Nc4ccc(OCCOCCOCCOCCOCCOCCOCCOCCOCCOCCOCCOCCOCCOCCOCCOCCNC(=O)CCNC(=O)c5nc(NC(=O)c6cc(NC(=O)CCNC(=O)c7nc(NC(=O)OCCNC(=O)c8cc(NC(=O)c9nc(NC(=O)CCNC(=O)c%10cc(NC(=O)c%11nccn%11C)cn%10C)cn9C)cn8C)cn7C)cn6C)cn5C)cc4)cc23)c1 [Compound A-72] |  |  | B (B is 90% to 80%) | A (A>90%) |  | 
Cc1sc2c(c1C)C(c1ccc(Cl)cc1)=N[C@@H](CC(=O)Nc1ccc(OCCOCCOCCOCCOCCOCCOCCOCCOCCOCCOCCOCCOCCOCCOCCOCCNC(=O)CCNC(=O)c3nc(NC(=O)c4cc(NC(=O)CCNC(=O)c5nc(NC(=O)OCCNC(=O)c6cc(NC(=O)c7nc(NC(=O)CCNC(=O)c8cc(NC(=O)c9nccn9C)cn8C)cn7C)cn6C)cn5C)cn4C)cn3C)cc1)c1nnc(C)n1-2 [Compound A-73] |  |  | A (A>90%) | A (A>90%) |  | 
CCS(=O)(=O)Nc1ccc(Oc2ccc(F)cc2F)c(-c2cn(C)c(=O)c3[nH]c(C(=O)Nc4ccc(OCCOCCOCCOCCOCCOCCOCCOCCOCCOCCOCCOCCOCCOCCOCCOCCNC(=O)CCNC(=O)c5nc(NC(=O)c6cc(NC(=O)CCNC(=O)c7nc(NC(=O)NCCNC(=O)c8cc(NC(=O)c9nc(NC(=O)CCNC(=O)c%10cc(NC(=O)c%11nccn%11C)cn%10C)cn9C)cn8C)cn7C)cn6C)cn5C)cc4)cc23)c1 [Compound A-74] |  |  | B (B is 90% to 80%) | A (A>90%) |  | 
Cc1sc2c(c1C)C(c1ccc(Cl)cc1)=N[C@@H](CC(=O)Nc1ccc(OCCOCCOCCOCCOCCOCCOCCOCCOCCOCCOCCOCCOCCOCCOCCOCCNC(=O)CCNC(=O)c3nc(NC(=O)c4cc(NC(=O)CCNC(=O)c5nc(NC(=O)NCCNC(=O)c6cc(NC(=O)c7nc(NC(=O)CCNC(=O)c8cc(NC(=O)c9nccn9C)cn8C)cn7C)cn6C)cn5C)cn4C)cn3C)cc1)c1nnc(C)n1-2 [Compound A-75] |  |  | A (A>90%) | A (A>90%) |  | 

Reference: US20240042046A1, “METHODS AND COMPOUNDS FOR MODULATING HUNTINGTON'S DISEASE” (Design Therapeutics, Inc., priority 2022, published 2024)
